What follows are compounds tested on Spontaneous hypertensive rat-derived vascular smooth muscle cells (VSMCs) in thoracic aorta (assay: Inhibition test on vascular smooth muscle cells proliferation (3H-thymidine incorporation)). Conditions: 3H-thymidine incorporation into DNA, 24 hours incubation with compound; read-out: Concentration of 50% inhibitory activity (IC50).
Type: cell-based
Protocol: Thus, the compounds of the present invention have a very potent inhibitory effect on vascular smooth muscle cells proliferation.
Spontaneous hypertensive rat-derived vascular smooth muscle cells (VSMCs) in thoracic aorta were isolated by explant technique. The VSMCs were placed into 96 wells at 5000 cells/well and incubated in DMEM containing 10 % fetal calf serum at 37 °C in 95 % air and 5 % carbon dioxide for 3 days. After the incubation, the medium was replaced with DMEM containing each compound and ^3H-thymidine, and then the VSMCs were incubated. 24 hours later, the incorporation of ^3H-thymidine into DNA was determined and the radioactivity was defined as proliferation inhibitory activity of VSMCs. The activity of each compound was shown as a concentration which reduced the radioactivity of non-treated group by 50 % (IC50).
Compound `COc1ccc(/C=C/C(=O)Nc2ccccc2C(=O)NCCCc2ccccc2)cc1OC` [Compound 20, (E)-2-(3,4-Dimethoxycinnanoylamino)-N-(3-phenylpropyl)benzamide] has an IC50 of 7 µM.
With `COc1cc(/C=C/C(=O)Nc2ccccc2C(=O)NCCO)cc(OC)c1OC` [Compound 45, (E)-N-(2-Hydroxyethyl)-2-(3,4,5-trimethoxycinnnamoylamino)benzamide] the IC50 was 34 µM.
`CCCCNC(=O)c1ccccc1NC(=O)/C=C/c1ccc(OC)c(OC)c1` [Compound 19, (E)-N-Butyl-2-(3,4-dimethoxycinnamoylanino)benzamide] showed an IC50 of 5 µM.

Same assay, conditions: Rattus norvegicus, VSMC; 3H-thymidine incorporation into DNA, 24 hours incubation with compound; read-out: Concentration of 50% inhibitory activity (IC50)
`COc1ccc(NC(=O)/C=C/c2ccc(OC)c(OC)c2)c(C(N)=O)c1` [Compound 67, (E)-2-(3,4-Dimethoxycinnamoylamino)-5-methoxybenzamide] showed an IC50 of 57 µM.
`CCOC(=O)c1ccccc1/C=C/C(=O)Nc1ccccc1C(N)=O` [Compound 3, (E)-2-(2-Ethoxycarbonylcinnamoylamino)benzamide] gave an IC50 of 46 µM.
Compound `CCOc1cc(/C=C/C(=O)Nc2ccccc2C(=O)NCCO)ccc1OC` [Compound 49, (E)-2-(3-Ethoxy-4-methoxycinnamoylamino)-N-(2-hydroxyethyl)benzamide] has an IC50 of 42 µM.
`COc1ccc(/C=C/C(=O)Nc2ccccc2C(=O)NCCOCCO)cc1OC` [Compound 42, (E)-2-(3,4-Dimethoxycinnamoylamino)-N-[2-(2-hydroxyethoxy)ethyl]benzamide] was tested, and the IC50 was 69 µM.
Compound `CCOc1ccc(/C=C/C(=O)Nc2ccccc2C(=O)NCCOCCO)cc1OC` [Compound 44, (E)-2-(4-Ethoxy-3-methoxycinnamoylamino)-N-[2-(2-hydroxyethoxy)ethyl]benzamide] has an IC50 of 58 µM.
`COc1cc(/C=C/C(=O)Nc2ccc(O)cc2C(N)=O)cc(OC)c1OC` [Compound 63, (E)-5-Hydroxy-2-(3,4,5-trimethoxycinnamoylamino)benzamide] gave an IC50 of 46 µM.
Compound `COc1ccccc1/C=C/C(=O)Nc1ccccc1C(N)=O` [Compound 24, (E)-2-(2-Methoxycinnamoylamino)benzamide] has an IC50 of 8 µM.
Work on `COc1ccc(C(C#N)=CC(=O)Nc2ccccc2C(N)=O)cc1OC` [Compound 53, 2-(β-Cyano-3,4-dimethoxycinnamoylamino)benzamide] yielded an IC50 of 56 µM.
In the case of `COc1cc(NC(=O)/C=C/c2cc(OC)c(OC)c(OC)c2)c(C(N)=O)cc1OC` [Compound 57, (E)-4,5-Dimethoxy-2-(3,4,5-trimethoxycinnamoylamino)benzamide], the IC50 is reported as 9 µM.
With `COc1cc(/C=C/C(=O)Nc2ccccc2C(=O)NCCN(CCO)CCO)cc(OC)c1OC` [Compound 51, (E)-N-[2-[Bis(2-hydroxyethyl)amino]ethyl]-2-(3,4,5-trimethoxycinnamoylamino)benzamide] the IC50 was 28 µM.
Compound `CC(=O)c1ccc(/C=C/C(=O)Nc2ccccc2C(N)=O)cc1` [Compound 33, (E)-2-(4-Acetylcinnamoylamino)benzamide] has an IC50 of 78 µM.
For `CCOc1cccc(/C=C/C(=O)Nc2ccccc2C(N)=O)c1` [Compound 1, (E)-2-(3-Ethoxycinnamoylamino)benzamide], the IC50 was 2 µM.
For `CC(C)Oc1cccc(/C=C/C(=O)Nc2ccccc2C(N)=O)c1` [Compound 2, (E)-2-(3-Isopropoxycinnamoylamino)benzamide], the IC50 was 14 µM.
`COc1ccc(/C=C/C(=O)Nc2ccccc2C(=O)NO)cc1OC` [Compound 60, (E)-2-(3,4-Dimethoxycinnamoylamino)-N-hydroxybenzamide] showed an IC50 of 36 µM.
`COc1ccc(/C=C/C(=O)Nc2ccccc2C(=O)NCCN(CCO)CCO)cc1OC` [Compound 50, (E)-N-[2-[Bis(2-hydroxyethyl)amino]ethyl]-2-(3,4-dimethoxycinnamoylamino)benzamide] showed an IC50 of 71 µM.
Work on `NC(=O)c1ccccc1NC(=O)/C=C/c1cccc(OCc2ccccc2)c1` [Compound 6, (E)-2-(3-Benzyloxycinnamoylamino)benzamide] yielded an IC50 of 9 µM.
Compound `COc1cccc(/C=C/C(=O)Nc2ccccc2C(N)=O)c1` [Compound 11, (E)-2-(3-Methoxycinnamoylamino)benzamide] has an IC50 of 9 µM.
`CCOc1ccc(/C=C/C(=O)Nc2cc(OC)c(OC)cc2C(=O)NCCO)cc1OC` [Compound 61, (E)-4,5-Dimethoxy-2-(4-ethoxy-3-methoxycinnamoylamino)-N-(2-hydroxyethyl)benzamide] gave an IC50 of 45 µM.
Work on `CN(C)c1ccc(/C=C/C(=O)Nc2ccccc2C(N)=O)cc1` [Compound 55, (E)-2-(4-Dimethylaminocinnamoylamino)benzamide] yielded an IC50 of 65 µM.
`COc1cc(/C=C/C(=O)Nc2ccccc2C(N)=O)cc(OC)c1O` [Compound 69, (E)-2-(3,5-Dimethoxy-4-hydroxycinnamoylamino)benzamide] was tested, and the IC50 was 55 µM.
`COc1cc(/C=C/C(=O)Nc2ccccc2C(=O)NCCCCO)cc(OC)c1OC` [Compound 48, (E)-N-(4-Hydroxybutyl)-2-(3,4,5-trimethoxycinnamoylamino)benzamide] showed an IC50 of 42 µM.
For `COc1cc(OC)c(OC)cc1/C=C/C(=O)Nc1ccccc1C(N)=O` [Compound 25, (E)-2-(2,4,5-Trimethoxycinnamoylamino)benzamide], the IC50 was 6 µM.
Work on `COc1cc(/C=C/C(=O)Nc2c(O)cccc2C(N)=O)cc(OC)c1OC` [Compound 64, (E)-3-Hydroxy-2-(3,4,5-trimethoxycinnamoylamino)benzamide] yielded an IC50 of 96 µM.
In the case of `CCOc1ccc(/C=C/C(=O)Nc2ccccc2C(N)=O)cc1` [Compound 9, (E)-2-(4-Ethoxycinnamoylamino)benzamide], the IC50 is reported as 5 µM.
`COc1ccc(/C=C/C(=O)Nc2ccccc2C(N)=O)c(OC)c1OC` [Compound 31, (E)-2-(2,3,4-Trimethoxycinnamoylamino)benzamide] gave an IC50 of 54 µM.
Work on `COc1cc(/C=C/C(=O)Nc2ccccc2C(=O)NCCOCCO)cc(OC)c1OC` [Compound 43, (E)-N-[2-(2-Hydroxyethoxy)ethyl]-2-(3,4,5-trimethoxycinnamoylamino)benzamide] yielded an IC50 of 44 µM.
In the case of `NC(=O)c1ccccc1NC(=O)/C=C/c1ccc2c(c1)OCO2` [Compound 30, (E)-2-(3,4-Methylenedioxycinnamoylamino)benzamide], the IC50 is reported as 9 µM.
Work on `COc1cc(/C=C/C(=O)Nc2ccccc2C(N)=O)cc(OC)c1` [Compound 32, (E)-2-(3,5-Dimethoxycinnamoylamino)benzamide] yielded an IC50 of 80 µM.
For `CCOc1c(OC)cc(/C=C/C(=O)Nc2ccccc2C(N)=O)cc1OC` [Compound 35, (E)-2-(3,5-Dimethoxy-4-ethoxycinnamoylamino)benzamide], the IC50 was 61 µM.
`COc1ccc(/C=C/C(=O)Nc2cc(OC)c(OC)cc2C(=O)NCCO)cc1OC` [Compound 56, (E)-4,5-Dimethoxy-2-(3,4-dimethoxycinnamoylamino)-N-(2-hydroxyethyl)benzamide] gave an IC50 of 44 µM.
Work on `NC(=O)c1ccccc1NC(=O)/C=C/c1cccc(F)c1` [Compound 23, (E)-2-(3-Fluorocinnamoylamino)benzamide] yielded an IC50 of 39 µM.
`CCOc1ccc(/C=C/C(=O)Nc2cc(OC)c(OC)cc2C(N)=O)cc1OC` [Compound 65, (E)-4,5-Dimethoxy-2-(4-ethoxy-3-methoxycinnamoylamino)benzamide] showed an IC50 of 12 µM.
Compound `CNC(=O)c1ccccc1NC(=O)/C=C/c1ccc(OC)c(OC)c1` [Compound 58, (E)-2-(3,4-Dimethoxycinnamoylamino)-N-methylbenzamide] has an IC50 of 15 µM.
With `COc1ccc(/C=C/C(=O)Nc2cc(OC)c(OC)cc2C(N)=O)cc1OC` [Compound 66, (E)-4,5-Dimethoxy-2-(3,4-dimethoxycinnamoylamino)benzamide] the IC50 was 13 µM.
Work on `COc1cc(/C=C/C(=O)Nc2ccccc2C(N)=O)cc(OC)c1OC` [Compound 26, (E)-2-(3,4,5-Trimethoxycinnamoylamino)benzamide] yielded an IC50 of 7 µM.
Work on `COc1ccc(/C=C/C(=O)Nc2ccccc2C(=O)NCCCCO)cc1OC` [Compound 47, (E)-2-(3,4-Dimethoxycinnamoylamino)-N-(4-hydroxybutyl)benzamide] yielded an IC50 of 60 µM.
Work on `COc1ccc(/C=C/C(=O)Nc2ccccc2C(N)=O)c(OC)c1` [Compound 12, (E)-2-(2,4-Dimethoxycinnamoylamino)benzamide] yielded an IC50 of 3 µM.
Work on `COc1ccc(NC(=O)/C=C/c2ccc(OC)c(OC)c2)c(C(=O)NCCO)c1` [Compound 62, (E)-2-(3,4-Dimethoxycinnamoylamino)-N-(2-hydroxyethyl)-5-methoxybenzamide] yielded an IC50 of 89 µM.
`NC(=O)c1ccccc1NC(=O)/C=C/c1ccc2c(c1)OCCO2` [Compound 38, (E)-2-(3,4-Ethylenedioxycinnamoylamino)benzamide] was tested, and the IC50 was 58 µM.
`NC(=O)c1ccccc1NC(=O)/C=C/c1cccc(Cl)c1` [Compound 22, (E)-2-(3-Chlorocinnamoylamino)benzamide] was tested, and the IC50 was 30 µM.
`COc1ccc(/C=C/C(=O)Nc2ccccc2C(=O)NCCN(C)C)cc1OC` [Compound 39, (E)-2-(3,4-Dimethoxycinnamoylamino)-N-(2-dimethylaminoethyl)benzamide] gave an IC50 of 55 µM.
Compound `CCCCOc1cccc(/C=C/C(=O)Nc2ccccc2C(N)=O)c1` [Compound 7, (E)-2-(3-Butoxycinnamoylamino)benzamide] has an IC50 of 86 µM.
With `CCOc1ccccc1/C=C/C(=O)Nc1ccccc1C(N)=O` [Compound 21, (E)-2-(2-Ethoxycinnamoylamino)benzamide] the IC50 was 30 µM.
In the case of `COc1cccc(/C=C/C(=O)Nc2ccccc2C(N)=O)c1OC` [Compound 5, (E)-2-(2,3-Dimethoxycinnamoylamino)benzamide], the IC50 is reported as 5 µM.
For `CCOc1cc(/C=C/C(=O)Nc2ccccc2C(N)=O)ccc1OC` [Compound 16, (E)-2-(3-Ethoxy-4-methoxycinnamoylamino)benzamide], the IC50 was 5 µM.
For `COc1ccc(C=C(C#N)C(=O)Nc2ccccc2C(N)=O)cc1OC` [Compound 52, 2-(α-Cyano-3,4-dimethoxycinnamoylamino)benzamide], the IC50 was 117 µM.
